Patent publication US20230190760A1, “ADVANTAGEOUS THERAPIES FOR DISORDERS MEDIATED BY IKAROS OR AIOLOS” (C4 Therapeutics, Inc., priority 2020, published 2023)
pEC50, pIC50, pKd: −log10 of the molar value.

Columns and labels:
cereblon-DDB1 = cereblon-DDB1 (Homo sapiens, UniProt Q96SW2); assay: Fluorescent polarization: probe displacement from purified cereblon-DDB1; assay type: binding; conditions: competition with Alexa-647 based fluorescence probe
Procedure: Columns 23 and 24 are reserved for 0% (5 nM probe) and 100% controls (protein at high concentration with 5 nM probe), respectively. […] Plates were read on an Envision plate reader with appropriate FP filter sets.

[1] = tested on: Caspase 3/7 activity in TMD8 cells; assay: Apoptosis induction, Caspase 3/7 activity in TMD8 cells
Procedure: 30 μL TMD8 cells were seeded into the 384-well plates in RPMI medium containing 10% FBS at a cell density of 2000 cells per well. Cells treated in the absence of the test compound were the negative control. Following compound treatment, cells were incubated at 37° C. with 5% CO2 for 48 hr. 30 μL reconstituted Caspase 3/7 Assay detection reagent was added to each well and luminescence was acquired on EnVision™ Multilabel Reader (PerkinElmer, Santa Clara, Calif., USA).

Pfeiffer = assay: Anti-proliferative activity, 96 hours; conditions: Homo sapiens
[2] = Plasma PK and interconversion in monkeys; assay type: in vivo; conditions: monkey, Compound 1 60 μg/kg or 100 μg/kg PO
Procedure: (§1) Compound 1 was administered to a rat at a concentration of 30 mg/kg PO and monkeys at a concentration of either 60 μg/kg or 100 μg/kg PO. At the indicated timepoints shown in FIG. 25A and FIG. 25B, plasma samples were collected and the Cmax, half-life, and AUC0-inf were determined for both Compound 1 and a metabolite of Compound 1, Compound 14. The percent of Compound 14 was also determined (Table 13). PK values dose normalized to 1 mg/kg. FIG. 25A is a graph measuring the concentration of Compound 1 or Compound 14 over the course of 24 hours in monkeys administered 100 μg/kg or 60 μg/kg of Compound 1. FIG. 25B is a graph measuring the concentration of Compound 1 or Compound 14 over the course of 24 hours in a rat administered 30 mg/kg of Compound 1.

[3] = tested on: RPMI-8226 multiple myeloma tumors; conditions: Combination
Procedure: A xenograft study was conducted in female CB17 SCID mice bearing RPMI-8226 multiple myeloma tumors. Female SCID mice were inoculated subcutaneously in the right flank with 10×10^6 tumors cells in 0.2 mL of PBS supplemented with matrigel (PBS:matrigel=1:1). Tumor volume was measured twice weekly in two dimensions using calipers, and volume was calculated using the formula: (w2×l)/2=mm^3, assuming 1 mg is equivalent to 1 mm^3 of tumor volume. […] Treatment began on Day 0 with established subcutaneous RPMI-8226 tumors with a mean tumor volume (MTV) of 130 mm^3.
All agents were administered to mice bearing RPMI-8226 tumors on day 0 and dosed until an individual moue tumor volume reached or exceeded 1000 mm^3, at which point the mouse was removed from the study and dosing stopped. […] Dexamethasone was dosed IV once a week at 5000 μg/kg and formulated in saline. […] Body weight and MTV were measured on a 2× weekly schedule. The study end point was reaching a TV greater than 1000 mm^3, at which point any mouse with a TV reaching this cut off TV was removed from the study. […] The survival analysis used was Logrank (Mantel-Cox test). Data are expressed as MTV±SEM.

Mino = assay: Anti-proliferative activity, 96 hours; conditions: Homo sapiens
[4] = tested on: 87 potential unintended molecular targets; assay: In vitro binding or activity against 87 potential unintended molecular targets; conditions: 100 nM, 500× the free plasma exposure (Cmax) of maximum in vivo efficacy
IKZF1/3 = assay: Ex vivo IKZF1/3 degradation in PBMC, cynomolgus monkey; assay type: cell-based; conditions: cynomolgus monkey cells
Procedure: IKZF1/3 are not degraded in mouse cells treated with thalidomide or its IMiD® analogs because of a single amino acid difference in mouse cereblon compared to human cereblon that causes steric hindrance and prevents recruitment of IKZF1/3. Ex vivo studies were performed in peripheral blood cells (PBMC) of mice, rats, dogs, and monkeys to identify relevant species for IND enabling-toxicity studies based on the degree of IKZF1 degradation by Compound 1. IKZF1 was not degraded in mouse or rat cells by Compound 1, thus, while rat could not be considered a pharmacologically relevant species for human risk assessment, it was chosen as the rodent species for toxicological studies because it is widely used in toxicity testing and a substantial historical toxicology database is available. […] Therefore, cynomolgus monkey was chosen for non-rodent toxicological studies.

RPMI 8226 = assay: Anti-proliferative activity, 96 hours; conditions: Homo sapiens, RPMI-8226, 96 h
[5] = tested on: multiple myeloma cell lines; assay: Anti-cancer activity in a panel of multiple myeloma cell lines; assay type: cell-based; conditions: eight of twelve were responsive, read-out: mean IC50 among responsive lines
H929 = assay: Anti-proliferative activity, 96 hours; conditions: Homo sapiens, NCI-H929, 96 h
NCIH929 cells = assay: NCI-H929 viability assay (CellTiter-Glo)
Procedure: NCIH929 cell viability was determined based on quantification of ATP using CellTiter-Glo®2.0 luminescent Assay kit, which signals the presence of metabolically-active cells. Briefly, test compound was added to 384-well plates at a top concentration of 1 μM with 10 points, half log titration in duplicates. NCIH929 cells were seeded into the 384-well plates in RPMI medium containing 10% FBS and 0.05 mM 2-mercaptoethanol at a cell density of 750 cells per well. Cells treated in the absence of the test compound were the negative control and cells treated in the absence of CellTiter-Glo® 2.0 were the positive control. Cells treated with the test compounds were incubated at 37° C. with 5% CO2 for 96 hr. CellTiter-Glo reagent was then added to the cells and Luminescence was acquired on EnVision™ Multilabel Reader (PerkinElmer, Santa Clara, Calif., USA). % Viability was determined by normalizing the signal with positive and DMSO treated negative controls on the same microtiter plate. […] Curve fit and IC502 determination was performed by 4 parametric regression analysis.

[6] = tested on: mantel cell lymphoma (MCL) cell lines; assay: Anti-cancer activity in MCL cell lines; assay type: cell-based; conditions: four of six lines tested were responsive; read-out: mean IC50 among the responsive lines
KMS-26 = assay: Anti-proliferative activity, 96 hours; conditions: KMS-26, 96 h
MM.1R = assay: Anti-proliferative activity, 96 hours
DL-40 ALCL tumors [7] = assay: DL-40 ALCL xenograft efficacy (Example 18); assay type: in vivo, mice; conditions: PO daily for 21 days
Procedure: A xenograft study was conducted in female NOD SCID mice bearing DL-40 ALCL tumors.
Data are expressed as MTV±SEM.

[8] = Plasma PK and interconversion in rat; assay type: in vivo; conditions: Compound 1 30 mg/kg PO
Procedure: as §1

IKZF1 and IRF-4 = assay: KI-JK ALCL tumor pharmacodynamic study, western blot (Example 17); assay type: in vivo, mice; conditions: single dose, 6-hour and 24-hour timepoint
Procedure: A pharmacodynamic study was also conducted in female NOD SCID mice bearing KI-JK ALCL tumors. […] Once tumors reached a volume of 450 mm^3 they were stratified into 3 treatment groups, consisting of 4 mice each.
Mice were sacrificed and tumors harvested at 6 and 24 hours post single dose. Tumors were mechanically homogenized, and protein extracted using RIPA buffer (Sigma Aldrich). Protein concentration was quantified using a Pierce™ BCA Protein Assay Kit, samples were reduced, and equal protein amounts were then loaded onto a western blot gel for analysis. Samples were analyzed for IKZF1 (Invitrogen, PA5-23728) and IRF-4 (CST, 15106) expression. Data is expressed as percentage of IKZF1 or IRF-4 in comparison to the vehicle control and normalized to GAPDH levels to control for protein loading. Error bars represent ±SEM values.

DL-40 ALCL tumors [9] = assay: DL-40 ALCL xenograft efficacy (Example 19); assay type: in vivo, mice
Procedure: A xenograft study was conducted in female NOD SCID mice bearing DL-40 ALCL tumors. […]

KARPASS422 = assay: Anti-proliferative activity, 96 hours
NCIH929.1 cells = assay: NCIH929.1 cell viability assay (CellTiter-Glo, GI50); assay type: cell-based; conditions: 96 hr

Chain of cereblon-DDB1 (Q96SW2 whole entry): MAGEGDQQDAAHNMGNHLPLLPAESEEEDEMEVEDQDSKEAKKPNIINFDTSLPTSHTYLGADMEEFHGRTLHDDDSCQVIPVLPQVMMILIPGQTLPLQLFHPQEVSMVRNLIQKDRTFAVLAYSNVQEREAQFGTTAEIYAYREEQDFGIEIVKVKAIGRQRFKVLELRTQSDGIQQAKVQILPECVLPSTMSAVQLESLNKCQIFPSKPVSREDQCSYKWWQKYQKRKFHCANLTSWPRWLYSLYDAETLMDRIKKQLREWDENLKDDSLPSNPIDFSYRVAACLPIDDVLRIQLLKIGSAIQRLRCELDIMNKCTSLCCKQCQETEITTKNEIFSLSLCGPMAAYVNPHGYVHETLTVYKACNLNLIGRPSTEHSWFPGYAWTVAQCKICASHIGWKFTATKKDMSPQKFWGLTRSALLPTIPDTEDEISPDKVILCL
Chain of cereblon-DDB1 (Q16531 whole entry partner): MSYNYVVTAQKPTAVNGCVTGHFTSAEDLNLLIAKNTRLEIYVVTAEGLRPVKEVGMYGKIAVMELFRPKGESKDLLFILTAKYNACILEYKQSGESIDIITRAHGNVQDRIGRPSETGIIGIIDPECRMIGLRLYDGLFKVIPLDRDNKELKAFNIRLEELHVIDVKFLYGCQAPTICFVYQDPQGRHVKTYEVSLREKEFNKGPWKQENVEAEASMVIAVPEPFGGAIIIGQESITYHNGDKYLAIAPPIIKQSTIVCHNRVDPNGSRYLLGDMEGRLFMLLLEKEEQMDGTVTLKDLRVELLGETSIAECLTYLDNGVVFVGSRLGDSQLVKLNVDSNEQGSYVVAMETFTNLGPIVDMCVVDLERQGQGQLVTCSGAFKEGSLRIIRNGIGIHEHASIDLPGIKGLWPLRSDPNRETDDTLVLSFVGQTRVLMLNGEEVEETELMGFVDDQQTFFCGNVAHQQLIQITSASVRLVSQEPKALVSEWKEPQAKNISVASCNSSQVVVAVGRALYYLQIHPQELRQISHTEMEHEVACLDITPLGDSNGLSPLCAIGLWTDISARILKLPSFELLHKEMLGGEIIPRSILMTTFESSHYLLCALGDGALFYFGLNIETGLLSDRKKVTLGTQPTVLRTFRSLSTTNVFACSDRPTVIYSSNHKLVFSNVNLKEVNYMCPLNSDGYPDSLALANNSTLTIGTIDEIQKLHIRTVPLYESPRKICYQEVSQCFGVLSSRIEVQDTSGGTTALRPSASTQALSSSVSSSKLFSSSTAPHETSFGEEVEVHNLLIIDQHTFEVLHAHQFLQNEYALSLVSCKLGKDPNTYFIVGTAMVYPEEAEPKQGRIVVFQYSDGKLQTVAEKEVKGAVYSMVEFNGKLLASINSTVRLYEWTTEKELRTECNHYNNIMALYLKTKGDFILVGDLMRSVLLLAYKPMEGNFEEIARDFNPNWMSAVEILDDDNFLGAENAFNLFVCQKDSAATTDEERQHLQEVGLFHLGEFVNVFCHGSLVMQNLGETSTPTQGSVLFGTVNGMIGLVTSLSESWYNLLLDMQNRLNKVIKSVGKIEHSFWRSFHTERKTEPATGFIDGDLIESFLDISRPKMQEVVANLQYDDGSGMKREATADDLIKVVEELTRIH

O=C1CC[C@H](N2C(=O)c3cccc4c(Cc5ccc(CN6CCOCC6)cc5)ccc2c34)C(=O)N1 (single isomer, unassigned) [Compound 1]
pKd (cereblon-DDB1): 9.05
Maximum caspase 3/7 activity ([1]; 48 hr): > 8 fold
activity level of caspase-3 and caspase-7 increased ([1]; FIG. 51): more than 800%
pEC50 ([1]; Homo sapiens, TMD8, 48 h, read-out: EC50, caspase 3/7 activity): 8.57
pIC50 (Pfeiffer): 8.97
AUC(0-inf) ([2]; dose normalized to 1 mg/kg): 1280 ng·h/mL
Cmax ([2]; dose normalized to 1 mg/kg): 83 ng/mL
half-life ([2]; read-out: T ½ (converted)): 9 h
Median Survival ([3]; Compound 1 10 μg/kg PO daily, Dexamethasone 5000 μg/kg IV once a week): 33
Statistical Significance Compared to Vehicle ([3]; survival, Logrank, Compound 1 10 μg/kg, Dexamethasone 5000 μg/kg): 0.007
pIC50 (Mino): 9.71
off-target inhibition [4]: no targets inhibited >50%
degrading IKZF1/3 (IKZF1/3): highly effective
pIC50 (RPMI 8226): 9.16
pIC50 [5]: 9.52
pIC50 (H929): 10.14
Mean Emax (%) ± SD, H929 Viability (NCIH929 cells; 96 hours, % viability): 4.0 ± 0.5%
maximal growth inhibition (NCIH929 cells; previously untreated NCIH929): 96%
IC50 (NCIH929 cells; read-out: Mean IC50 (nM), H929 Viability, 96 hours): 0.071 nM
pIC50 [6]: 7.89
pIC50 (KMS-26): 9.10
pIC50 (MM.1R): 10.08
tumor volume versus pomalidomide (DL-40 ALCL tumors [7]): more successful at decreasing tumor volume than pomalidomide
AUC(0-inf) ([8]; dose normalized to 1 mg/kg): 784 ng·h/mL
Cmax ([8]; dose normalized to 1 mg/kg): 110 ng/mL
half-life ([8]; read-out: T ½ (converted)): 2.3 h
percentage of IKZF1 and IRF-4 compared to pomalidomide (IKZF1 and IRF-4): smaller
Statistical Significance Compared to Vehicle (DL-40 ALCL tumors [9]; 3 μg/kg PO daily): 0.0111
Statistical Significance Compared to Vehicle (DL-40 ALCL tumors [9]; 10 μg/kg PO daily): 0.0006
Statistical Significance Compared to Vehicle (DL-40 ALCL tumors [9]; 30 μg/kg PO daily): 0.0004
Statistical Significance Compared to Vehicle (DL-40 ALCL tumors [9]; 100 μg/kg PO daily): 0.0004
Statistical Significance Compared to Vehicle (DL-40 ALCL tumors [9]; 300 μg/kg PO daily): 0.0004
tumor volume (DL-40 ALCL tumors [9]; 30, 100, and 300 μg/kg, 21 days): able to reduce tumor volume
pIC50 (KARPASS422): 9.72
GI50 (NCIH929.1 cells): 0.0743 nM
